Measurements as given in patent US9302999B2, “Substituted triazoles as herbicides” (E. I. DU PONT DE NEMOURS AND COMPANY, priority 2012, dated 2016).

How the values were obtained:
Format in all cases: in vivo
[1] = test system: nightshade (eastern black nightshade, Solanum ptycanthum); assay: Test E pre-/postemergence: nightshade; details: Preemergence, scale 0 to 100
Excerpt: (§1) Seeds of plant species selected from corn (Zea mays), soybean (Glycine max), velvetleaf (Abutilon theophrasti), lambsquarters (Chenopodium album), poinsettia, wild (wild poinsettia, Euphorbia heterophylla), pigweed, palmer (palmer pigweed, Amaranthus palmeri), waterhemp (common waterhemp, Amaranthus rudis), smartweed (ladysthumb smartweed, Polygonum persicaria), surinam grass (Brachiaria decumbens), crabgrass, large (large crabgrass, Digitaria sanguinalis), crabgrass, Brazil (Brazilian crabgrass, Digitaria horizontalis), panicum, fall (fall panicum, Panicum dichotomiflorum), foxtail, giant (giant foxtail, Setaria faberii), foxtail, green (green foxtail, Setaria viridis), goosegrass (Eleusine indica), johnsongrass (Sorghum halepense), ragweed (common ragweed, Ambrosia elation), barnyardgrass (Echinochloa crus-galli), sandbur (southern sandbur, Cenchrus echinatus), arrowleaf sida (Sida rhombifolia), ryegrass, Italian (Italian ryegrass, Lolium multiflorum), dayflower, (VA) (Virginia dayflower, Commelina virginica), field bindweed (Convolvulus arvensis), cocklebur (common cocklebur, Xanthium strumarium), morningglory (Ipomoea coccinea), nightshade (eastern black nightshade, Solanum ptycanthum), kochia (Kochia scoparia), nutsedge, yellow (yellow nutsedge, Cyperus esculentus) and beggarticks (hairy beggarticks, Bidens pilosa) were planted into a silt loam soil and treated preemergence with test chemicals formulated in a non-phytotoxic solvent mixture which included a surfactant. At the same time, plants selected from these crop and weed species were planted in pots containing a growing medium comprising spaghnum peat moss, vermiculite, wetting agent and starter nutrients and treated with postemergence applications of some of the test chemicals formulated in the same manner. Plants ranged in height from 2 to 18 cm for postemergence treatments (1- to 4-leaf stage).
(§2) Treated plants and controls were maintained in a greenhouse for 14 to 21 days, after which time all species were compared to controls and visually evaluated. Plant response ratings, summarized in Table E, are based on a scale of 0 to 100 where 0 is no effect and 100 is complete control. A dash (-) response means no test result.

[2] = test system: panicum, fall (fall panicum, Panicum dichotomiflorum); assay: Test E pre-/postemergence: panicum, fall; details: scale 0 to 100
Excerpt: as §1, §2

[3] = test system: johnsongrass (Sorghum halepense); assay: Test E pre-/postemergence: johnsongrass; details: Preemergence, scale 0 to 100
Excerpt: as §1, §2

[4] = test system: crabgrass, large (large crabgrass, Digitaria sanguinalis); assay: Test E pre-/postemergence: crabgrass, large; details: Preemergence, scale 0 to 100
Excerpt: as §1, §2

[5] = test system: goosegrass (Eleusine indica); assay: Test F pre-/postemergence: goosegrass; details: Preemergence
Excerpt: (§3) Seeds of plant species selected from corn (Zea mays), soybean (Glycine max), velvetleaf (Abutilon theophrasti), lambsquarters (Chenopodium album), poinsettia, wild (wild poinsettia, Euphorbia heterophylla), pigweed, palmer (palmer pigweed, Amaranthus palmeri), waterhemp (common waterhemp, Amaranthus rudis), surinam grass (Brachiaria decumbens), crabgrass, Brazil (Brazilian crabgrass, Digitaria horizontalis), panicum, fall (fall panicum Panicum dichotomiflorum), crabgrass, large (large crabgrass, Digitaria sanguinalis), foxtail, giant (giant foxtail, Setaria faberii), foxtail, green (green foxtail Setaria viridis), goosegrass (Eleusine indica), ragweed (common ragweed, Ambrosia elatior), barnyardgrass (Echinochloa crus-galli), sandbur (southern sandbur, Cenchrus echinatus), arrowleaf sida (Sida rhombifolia), ryegrass, Italian (Italian ryegrass, Lolium multiflorum), dayflower, VA (Virginia (VA) dayflower, Commelina virginica), field bindweed (Convolvulus arvensis), cocklebur (common cocklebur, Xanthium strumarium), morningglory (Ipomoea coccinea), nightshade (eastern black nightshade, Solanum ptycanthum), kochia (Kochia scoparia), nutsedge, yellow (yellow nutsedge, Cyperus esculentus), johnsongrass (Sorghum halepense), smartweed (ladysthumb smartweed, Polygonum persicaria), and beggarticks (hairy beggarticks, Bidens pilosa), were planted into a silt loam soil and treated preemergence with test chemicals formulated in a non-phytotoxic solvent mixture which included a surfactant. At the same time, plants selected from these crop and weed species and also pigweed (Amaranthus retroflexus), waterhemp_RES1 (ALS/Triazine resistant common waterhemp, Amaranthus rudis) and waterhemp_RES2 (ALS/HPPD resistant common waterhemp, Amaranthus rudis) were planted in pots containing a planting medium comprising spaghnum peat moss, vermiculite, wetting agent and starter nutrients treated with postemergence applications of some of the test chemicals formulated in the same manner. Plants ranged in height from 2 to 18 cm for postemergence treatments (1- to 4-leaf stage).
as §2

[6] = test system: morningglory (Ipomoea coccinea); assay: Test F pre-/postemergence: morningglory; details: Preemergence
Excerpt: as §3, §2

[7] = test system: kochia (Kochia scoparia); assay: Test F pre-/postemergence: kochia; details: Preemergence
Excerpt: as §3, §2

[8] = test system: Waterhemp; assay: Test C preemergence: waterhemp; details: 62 g ai/ha, scale of 0 to 100, 0 is no effect, 100 is complete control
Excerpt: Seeds of plant species selected from blackgrass (Alopecurus myosuroides), bromegrass, downy (downy bromegrass, Bromus tectorum), foxtail, green (green foxtail, Setaria viridis), ryegrass, Italian (Italian ryegrass, Lolium multiflorum), winter wheat (Triticum aestivum), wild oat (Avena fatua), galium (catchweed bedstraw, Galium aparine), bermudagrass (Cynodon dactylon), surinam grass (Brachiaria decumbens), cocklebur (common cocklebur, Xanthium strumarium), corn (Zea mays), large crabgrass (Digitaria sanguinalis), woolly cupgrass (Eriochloa villosa), foxtail, giant (giant foxtail, Setaria faberii), goosegrass (Eleusine indica), johnsongrass (Sorghum halepense), kochia (Kochia scoparia), lambsquarters (Chenopodium album), morningglory (Ipomoea coccinea), nightshade (eastern black nightshade, Solanum ptycanthum), nutsedge, yellow (yellow nutsedge, Cyperus esculentus), pigweed (Amaranthus retroflexus), ragweed (common ragweed, Ambrosia elation), soybean (Glycine max), common (oilseed) sunflower (Helianthus annuus), Russian thistle (Salsola kali) and velvetleaf (Abutilon theophrasti) were planted into a blend of loam soil and sand and treated preemergence with test chemicals formulated in a non-phytotoxic solvent mixture which included a surfactant.
as §2, with “13” for “14”, “15” for “21”, “C,” for “E,”

[9] = 16 g ai/ha, scale 0 to 100 (0 no effect, 100 complete control)
[10] = 31 g ai/ha, scale 0 to 100 (0 no effect, 100 complete control)
[11] = 4 g ai/ha, scale 0 to 100, 0 no effect, 100 complete control
[12] = 8 g ai/ha, scale 0 to 100, 0 no effect, 100 complete control

SMILES	Plant response rating: Nightshade ([1]; 31 g ai/ha)	Plant response rating: Nightshade ([1]; 62 g ai/ha)	Plant response rating: Nightshade ([1]; 125 g ai/ha)	Plant response rating: Panicum, Fall ([2]; Preemergence, 16 g ai/ha)	Plant response rating: Panicum, Fall ([2]; Preemergence, 31 g ai/ha)	Plant response rating: Panicum, Fall ([2]; Preemergence, 62 g ai/ha)	Plant response rating: Panicum, Fall ([2]; Preemergence, 125 g ai/ha)	Plant response rating: Johnsongrass ([3]; 16 g ai/ha)	Plant response rating: Johnsongrass ([3]; 31 g ai/ha)	Plant response rating: Johnsongrass ([3]; 62 g ai/ha)	Plant response rating: Johnsongrass ([3]; 125 g ai/ha)	Plant response rating: Crabgrass, Large ([4]; 16 g ai/ha)	Plant response rating: Crabgrass, Large ([4]; 31 g ai/ha)	Plant response rating: Crabgrass, Large ([4]; 62 g ai/ha)	Plant response rating: Crabgrass, Large ([4]; 125 g ai/ha)	Plant response rating, Goosegrass [5, 9]	Plant response rating, Goosegrass [5, 10]	Plant response rating, Goosegrass ([5]; 62 g ai/ha, scale 0 to 100)	Plant response rating, Morningglory [6, 9]	Plant response rating, Waterhemp [8]	also measured
Cc1nn(-c2ccc(F)cc2)nc1Cc1ccnc(C(F)(F)F)c1 [Compound 16, 4-[[2-(4-fluorophenyl)-5-methyl-2H-1,2,3-triazol-4-yl]methyl]-2-(trifluoromethyl)pyridine]	50	100	100	70	100	100	100	15	20	40	98	5	5	90	90						Plant response rating: Nightshade ([1]; 8 g ai/ha): 0; Plant response rating: Nightshade ([1]; 16 g ai/ha): 0; Plant response rating: Panicum, Fall ([2]; Preemergence, 8 g ai/ha): 0; Plant response rating: Johnsongrass ([3]; 8 g ai/ha): 0; Plant response rating: Crabgrass, Large ([4]; 8 g ai/ha): 0
Cc1nn(-c2ccc(C(F)(F)F)cc2)nc1Cc1ccnc(C(F)(F)F)c1 [Compound 47, 4-[[5-methyl-2-[4-(trifluoromethyl)phenyl]-2H-1,2,3-triazol-4-yl]methyl]-2-(trifluoromethyl)pyridine]	75	98	98	100	100	100	100	25	30	35	40	20	75	100	100						Plant response rating: Nightshade ([1]; 250 g ai/ha): 98; Plant response rating: Panicum, Fall ([2]; Postemergence, 250 g ai/ha): 40; Plant response rating: Panicum, Fall ([2]; Postemergence, 16 g ai/ha): 10; Plant response rating: Panicum, Fall ([2]; Postemergence, 31 g ai/ha): 20; Plant response rating: Panicum, Fall ([2]; Postemergence, 62 g ai/ha): 30; Plant response rating: Panicum, Fall ([2]; Postemergence, 125 g ai/ha): 30; Plant response rating: Panicum, Fall ([2]; Preemergence, 250 g ai/ha): 100; Plant response rating: Johnsongrass ([3]; 250 g ai/ha): 100; Plant response rating: Crabgrass, Large ([4]; 250 g ai/ha): 100
Cc1nn(-c2ccc(F)cc2)nc1Oc1ccnc(C(F)(F)F)c1 [Compound 129, 4-[[2-(4-fluorophenyl)-5-methyl-2H-1,2,3-triazol-4-yl]oxy]-2-(trifluoromethyl)pyridine]	0	50	60	35	98	100	100	20	20	20	25	10	80	100	100						Plant response rating: Nightshade ([1]; 8 g ai/ha): 0; Plant response rating: Nightshade ([1]; 16 g ai/ha): 0; Plant response rating: Panicum, Fall ([2]; Preemergence, 8 g ai/ha): 0; Plant response rating: Johnsongrass ([3]; 8 g ai/ha): 0; Plant response rating: Crabgrass, Large ([4]; 8 g ai/ha): 0
Fc1ccc(-n2nc(Cc3ccnc(C(F)(F)F)c3)c(OCC(F)(F)F)n2)cc1 [Compound 142]																40	70	100	0		Plant response rating, Goosegrass ([5]; 125 g ai/ha, scale 0 to 100): 100; Plant response rating, Morningglory [6, 10]: 0; Plant response rating, Morningglory ([6]; 125 g ai/ha, scale 0 to 100): 35; Plant response rating, Kochia [7, 9]: 20; Plant response rating, Kochia [7, 10]: 80; Plant response rating, Kochia ([7]; 62 g ai/ha, scale 0 to 100): 85; Plant response rating, Kochia ([7]; 125 g ai/ha, scale 0 to 100): 95
CCCc1nn(-c2ccc(F)cc2)nc1Cc1ccnc(C(F)(F)F)c1 [Compound 153]																80	95	98	0	100	Plant response rating, Goosegrass ([5]; 125 g ai/ha, scale 0 to 100): 100; Plant response rating, Goosegrass ([5]; 250 g ai/ha, scale 0 to 100): 100; Plant response rating, Morningglory [6, 10]: 30; Plant response rating, Morningglory ([6]; 125 g ai/ha, scale 0 to 100): 65; Plant response rating, Morningglory ([6]; 250 g ai/ha, scale 0 to 100): 65; Plant response rating, Kochia [7, 9]: 25; Plant response rating, Kochia [7, 10]: 75; Plant response rating, Kochia ([7]; 62 g ai/ha, scale 0 to 100): 95; Plant response rating, Kochia ([7]; 125 g ai/ha, scale 0 to 100): 100; Plant response rating, Kochia ([7]; 250 g ai/ha, scale 0 to 100): 100
Cc1nn(-c2ccc(C(F)(F)F)c(F)c2)nc1Cc1ccnc(C(F)(F)F)c1 [Compound 162]																95	100	100	20	100	Plant response rating, Goosegrass [5, 11]: 0; Plant response rating, Goosegrass [5, 12]: 0; Plant response rating, Morningglory [6, 11]: 0; Plant response rating, Morningglory [6, 12]: 0; Plant response rating, Morningglory [6, 10]: 30; Plant response rating, Kochia [7, 11]: 30; Plant response rating, Kochia [7, 10]: 70; Plant response rating, Kochia ([7]; 62 g ai/ha, scale 0 to 100): 98
CCc1nn(-c2ccc(F)cc2)nc1Oc1ccnc(C(F)(F)F)c1 [Compound 166]																				100	
CCOc1nn(-c2ccc(Br)cc2)nc1Cc1ccnc(C(F)(F)F)c1 [Compound 189]																				100	
